Where two headings read alike, the source gives them in different places.
Tests used:
[1] = test system: binding of Tsp 130 antibody to T. spiralis TSL-1 antigens and E11.5 lysate
[2] = test system: binding of Tsp 130 antibody to TSL-1 antigen; experiment: Competition ELISA: disaccharide inhibition of Tsp 130 antibody binding to TSL-1 antigen (Example 5); set-up: species or system T. spiralis; conditions: for inhibition of binding of Tsp 130 antibody to TSL-1 antigen: about 500 μg/ml; for relative affinity of Tsp 130 binding: in words, Example 5
Protocol: (§1) Monoclonal antibody Tsp 130 was prepared as described in Denkers et al. (J. Immunol. 144:3152-3159, 1990). TSL-1 antigens were prepared from muscle stage larvae by affinity purification using a Tsp 130 antibody preparation and methods as described in Denkers et al., J. Immunol., ibid., and Denkers et al., Mol. Biochem. Parasitol., ibid.
(§2) Wells in an ELISA plate were coated with TSL-1 antigens as follows. A 96-well Immunlon II ELISA plate, available from Dynatech Laboratories, Chantilly, Va., was coated with about 100 μl/well of a solution containing about 15 ng of TSL-1 antigens per 100 μl carbonate buffer at pH 9.6, overnight, at about 4° C. Following the overnight incubation, the TSL-1 antigen-containing solution was discarded from the wells of the ELISA plate. No wash was performed. The wells of the ELISA plate were then filled to the top with about 10% dry milk in phosphate buffered saline and allowed to incubate for about 1 hour at room temperature. Following the 1 hour incubation, the milk solution was discarded from the wells. No wash was performed.
(§3) Samples in which Tsp-130 monoclonal antibodies and disaccharides, as listed below, were pre-incubated prior to addition to the treated ELISA plate were prepared as follows. One thousand-fold serial dilutions of the following disaccharides, ranging from about 1×10^-6 fg/ml to about 1 mg/ml, were prepared in water: (a) α-tyvelose(1,3)β-d-N-acetylgalactosamine (also referred to herein as α-tyv-GalNAc); (b) β-tyvelose(1,3)β-d-N-acetylgalactosamine (also referred to herein as β-tyv-GalNAc); and (c) α-glucoseα-D-glucose (also referred to herein as α-glc-glc, or trehalose). The disaccharide-containing serial dilutions were then mixed with an about 1:6,400 dilution of Tsp 130 antibody at an about 1:1 (v:v) ratio. The samples were incubated for overnight at about 4° C.
(§4) About 100 μl of the pre-incubation samples were added in triplicate to wells in the milk-coated ELISA plate. The plate was incubated for about 1 hour at room temperature to allow any unbound Tsp 130 antibody in each sample to bind to TSL-1 antigen coated onto the ELISA plate. The plate was then washed 3 times with water.
(§5) The amount of Tsp 130 antibody that bound to TSL-1 antigen coated onto the ELISA plate was determined using the following method. About 100 μl of an about 1:8,000 dilution of horse radish peroxidase-conjugated goat anti-mouse IgG antibody (available from Kirkegaard & Perry Laboratories, Inc., Gaithersburg, Md.) was added to each well of the ELISA plate. The plate was then incubated for about 45 minutes at room temperature. Following incubation, the plate was washed 5 times with 0.05% Tween 20 in phosphate-buffered saline (PBS). The peroxidase-conjugated antibodies which bound to Tsp 130 antibody in the wells were then detected by (a) adding 100 μl/well of 3,3',5,5'-tetramethylbenzidine mixed 1:1 (v:v) with 0.02% hydrogen peroxide in a citric acid buffer (i.e., TMB Microwell Peroxidase Substrate System available from Kirkegaard & Perry) and (b) incubating the plate for about 5 minutes at room temperature. The color reaction was stopped by adding about 100 μl/well of 1M o-phosphoric acid. The color reaction was quantitated using a Microplate Reader #7520, available from Cambridge Technology, Inc., Watertown, Mass. at a wavelength of 450 nm.

[3] = test system: Tsp 130 binding to the crude T. spiralis muscle stage larval lysate E11.5; experiment: Competitive inhibition assay: disaccharide inhibition of Tsp 130 binding to crude muscle stage larval lysate E11.5 (Example 7); conditions: for inhibition of Tsp 130 binding to E11.5 lysate: about 500 μg/ml
Protocol: as §3, §4, §5
Monoclonal antibody Tsp 130 was prepared as described in Example 5. A crude muscle larval lysate of T. spiralis, referred to herein as E11.5, was prepared according to the method as described in Reason et al., ibid.
An Immunlon II ELISA plate coated with E11.5 lysate was prepared using the method described in Example 5 with the variation that wells in the plate were coated with about 100 μl/well of a solution containing about 250 ng of E11.5 lysate per 100 μl carbonate buffer at pH 9.6. […]

[4] = test system: Tsp 130 binding to TSL-1 antigen; experiment: Competitive inhibition assay: disaccharide inhibition of Tsp 130 binding to TSL-1 antigen (Example 6); set-up: species or system T. spiralis
Protocol: as §1, §2, §3
About 100 μl of the pre-incubation samples were added in triplicate to wells in the milk-coated ELISA plate. The plate was incubated for about 1 hour at room temperature to allow any unbound Tsp 130 antibody in each sample to bind to TSL-1 antigen coated onto the ELISA plate. […]
The amount of Tsp 130 antibody that bound to TSL-1 antigen coated onto the ELISA plate was determined using the following method. […] The peroxidase-conjugated antibodies which bound to Tsp 130 antibody in the wells were then detected by (a) adding 100 μl/well of 3,3',5,5'-tetramethylbenzidine mixed 1:1 (v:v) with 0.02% hydrogen peroxide in a citric acid buffer (i.e., TMB Microwell Peroxidase Substrate System available from Kirkegaard & Perry) and (b) incubating the plate for about 5 minutes at room temperature. […] The color reaction was quantitated using a Microplate Reader #7520, available from Cambridge Technology, Inc., Watertown, Mass. at a wavelength of 450 nm. […]

Row | Compound | inhibition of binding of Tsp 130 antibody to TSL-1 antigen [2] | relative affinity of Tsp 130 binding [2] | inhibition of Tsp 130 binding to E11.5 lysate [3] | inhibition of Tsp 130 binding to TSL-1 antigen ([4]; about 1 mg/ml) | also measured
1 | C[C@H]1O[C@H](O)[C@@H](O)C[C@@H]1O [α-tyvelose] |  |  |  |  | competitive inhibition of Tsp 130 antibody binding, comparison [1]: able to competitively inhibit Tsp 130 antibody binding to TSL-1 antigen but at a higher concentration than β-tyvelose
2 | CC(=O)N[C@@H]1[C@@H](O[C@@H]2O[C@H](C)[C@@H](O)C[C@@H]2O)[C@@H](O)[C@@H](CO)O[C@H]1O [β-tyv-GalNAc, β-tyvelose(1,3)β-d-N-acetylgalactosamine] | about 100% | higher affinity than to α-tyv-GalNAc | about 97% | about 97% | relative affinity of Tsp 130 binding ([3]; in words, Example 7): higher affinity than to α-tyv-GalNAc or to α-glc-glc; inhibition of Tsp 130 binding to TSL-1 antigen ([4]; about 100 μg/ml): about 92%; relative affinity of Tsp 130 binding ([4]; in words, Example 6): higher affinity than to α-tyv-GalNAc
3 | CC(=O)N[C@@H]1[C@@H](O[C@H]2O[C@H](C)[C@@H](O)C[C@@H]2O)[C@@H](O)[C@@H](CO)O[C@H]1O [α-tyv-GalNAc, α-tyvelose(1,3)β-d-N-acetylgalactosamine] | about 50% |  | about 28% | about 74% | 
4 | β-3,6-dideoxy-D-arabinohexose [β-tyvelose] |  |  |  |  | competitive inhibition of Tsp 130 antibody binding, comparison ([1]; in words, Examples 5 through 7): better than α-tyvelose and even better than α-glc-glc
5 | OC[C@H]1O[C@H](O[C@H]2O[C@H](CO)[C@@H](O)[C@H](O)[C@H]2O)[C@H](O)[C@@H](O)[C@@H]1O [α-glc-glc, α-glucoseα-D-glucose, reference compound] | about 30% | even weaker | about 7% |  | 

From patent US5707817A, “Carbohydrate-based vaccine and diagnostic reagent for trichinosis” (Colorado State University Research Foundation, priority 1995, dated 1998)
